The test system of data set [1] is K. pneumoniae (ATCC 43816). The data set can be described thus: Checkerboard potentiation assay with novobiocin. The data set is classed as cell-based. The procedure: (§1) Bacterial strains and culture conditions. The following bacterial strains were used within this study; A. baumannii (ATCC 17978), K. pneumoniae (ATCC 43816), K. pneumoniae (ATCC 43816, expressing pGDP2:mcr-1), P. aeruginosa (PA01). Bacterial growth was in cation-adjusted Mueller-Hinton broth (MHB) at 37° C., and inoculum was prepared according to CLSI protocol (CLSI 2015).
(§2) Potentiation assays. Checkerboard analyses were conducted with each drug serially diluted at eight concentrations to create an 8×8 matrix. At least two biological replicates were done for each combination, and the means were used for FIC calculation. The FIC for each drug was calculated by dividing the concentration of the drug in the presence of codrug in a combination for a well showing <10% growth by the MIC for that drug alone. The FIC index (FICI) is the sum of the two FICs, with an FIC index≤0.5 deemed synergistic.
(§3) To probe the spectrum of activity of the present analogs beyond A. baumannii, their interactions with novobiocin were assessed against the high-priority Gram-negative pathogens Klebsiella pneumoniae and P. aeruginosa (FIG. 5).

The subject of a further data set is P. aeruginosa (PA01). Nature of the data set: Checkerboard potentiation assay with novobiocin. The data set is classed as cell-based. The procedure:
as §1, §2, §3

Data set [2] deals with K. pneumoniae (ATCC 43816, expressing pGDP2:mcr-1). Nature of the data set: Checkerboard potentiation assay with novobiocin, mcr-1 strain. The format is cell-based. Particulars: mcr-1 expressing K. pneumoniae.
Another data set relates to LPS from E. coli EH100. Nature of the data set: BODIPY-Cadaverine LPS displacement assay. Particulars: BODIPY-cadaverine displacement from E. coli EH100 LPS. The format is binding. The procedure:
BODIPY-Cadaverine LPS displacement assay. The BODIPY-cadaverine LPS displacement assay was performed as previously described (Wood et al. 2004. Combinatorial Chemistry & High Throughput Screening, 7: 239-49; Klobucar et al. 2021. ACS Chemical Biology, 16: 929-42). A solution of BODIPY-cadaverine (2.25 μM) and LPS from E. coli EH100 (5.25 μM) in Tris-HCl buffer (50 mM, pH 7.4) was prepared. 0.5 μL of compound and 49.5 μL of the Tris-HCl buffer with BODIPY-cadaverine and LPS solution were added to a Corning nonbinding surface black 384-well polystyrene plate. Fluorescence intensity was measured immediately with an excitation wavelength of 580 nm and an emission wavelength of 620 nm. EC50 values were calculated using a three-parameter logistic curve in GraphPad Prism 9.

A short description of data set [3]: HEK293 cytotoxicity assay (Cell Titer Glo). The format is cell-based. Particulars: human, HEK293T Cytotoxicity (IC50, μg/mL). The procedure:
(§4) Cytotoxicity Assays. HEK293 (ATCC CRL 1573) cells were left to adhere for 18 h at 7.5×10^3 cells per well in DMEM containing 10% FBS and 2 mM L-glutamine. Compound was added directly into the well. After 48 h of treatment Promega Cell Titer Glo 2.0® was added, shaken for 10 min, and luminescence read (Biotek Neo). AC50 values were calculated using a four-parameter logistic curve in GraphPad Prism 9.
(§5) Focusing on only the analogs that retained synergistic activity with novobiocin (FICI≤0.5), half-maximal activity (AC50) values were calculated against HEK293 cells using a CellTiter-Glo® based assay to approximate cell viability. […] Specifically, the FICI value for both P35 and P36 was 0.094 against A. baumannii, while their AC50 values were 235 μg/mL and 200 μg/mL, respectively.

In data set [4] the test system is HEK293 (ATCC CRL 1573) cells. The data set can be described thus: HEK293 cytotoxicity assay (Cell Titer Glo). The data set is classed as cell-based. Particulars: human, 48 h. The procedure: as §4, §5
A short description of the next data set: Solubility at pH 7.4. The format is physicochemical. Particulars: pH 7.4, aqueous buffer, thermodynamic from solid; read-out: Kinetic solubility (μM @ pH 7.4). The protocol: Thermodynamic solubility. P35 in solution at pH 7.4 was incubated at ambient temperature overnight with stirring using a vial roller system. The saturation of the solution was determined using HPLC-UV. This assay was performed in duplicate by Cyprotex Ltd.

Data set [5] can be described thus: In vitro metabolic stability, rat. Particulars: read-out: In vitro metabolic stability (t1/2, min), rat. The format is in vitro ADME.
The target in a further data set is T1, CYP2D6 (Homo sapiens, UniProt P10635).
T1 construct: Cyprotex Ltd. (contract laboratory that ran the assay)
Nature of the data set: P450 inhibition. The data set is classed as in vitro ADME. Particulars: read-out: P450 Inhibition CYP 2D6 (IC50). The protocol:
P450 inhibition. An 8-point dose-response of P35 (0, 0.1, 0.25, 1, 2.5, 10, 25 μM) was tested against the following cytochrome P450 (CYP) isoforms CYP3A4, CYP2C9, CYP2D6, CYP1A2, and CYP2C19. Reduction in metabolite formation was quantified using LC-MS/MS (with the exception of ethoxyresorufin for CYP1A2) to calculate an IC50 value. This assay was performed by Cyprotex Ltd.

Data set [6] in a line: Plasma protein binding (equilibrium dialysis). The format is in vitro ADME. The protocol:
Plasma protein binding. Protein binding of P35 in mouse/rat/dog/human plasma was determined using an equilibrium dialysis method. The fraction of compound unbound to proteins was calculated with LC-MS/MS. This assay was performed in duplicate by Cyprotex Ltd.
A general note: Equilibrium dialysis compares concentrations on both sides of a semipermeable membrane.

The next data set concerns the target hERG channel (Homo sapiens, UniProt Q12809). The procedure: hERG channel assays. All assays were performed by Cyprotex Ltd. using an eCiphrCardio assay. CDI iCell® cardiomyocytes are plated onto fibronectin coated 48 well microelectrode array plates at a density of 50,000 cells per well in 5 μl iCell® plating medium. After 2 h, 300 μl of maintenance medium is added to each well. The plate is incubated for 2 days, and then the medium is completely changed to 500 μl of maintenance medium. The cells are incubated for an additional 3 days until a stable beating phenotype is achieved and the cells are ready for drug treatment. The medium is changed the day before dosing. […] The activity of cells in a 48-well microelectrode array is recorded prior to treatment (baseline) and at 1- and 48-hours post-treatment using the Axion Biosystems Maestro MEA system. The recording conditions are at 37° C. with 5% CO2 using the standard cardiac settings on the Axion Biosystems Maestro Axis software version 2.1. The results are analyzed with the Axion Biosystem software.

For the next data set, the system named is HepG2 cells. Particulars: human, 72 h, 75 µM.
Another data set can be described thus: in vitro. Particulars: human.

≈ marks a conversion by molar mass, not a printed value.

Chain of hERG channel (Q12809 whole entry): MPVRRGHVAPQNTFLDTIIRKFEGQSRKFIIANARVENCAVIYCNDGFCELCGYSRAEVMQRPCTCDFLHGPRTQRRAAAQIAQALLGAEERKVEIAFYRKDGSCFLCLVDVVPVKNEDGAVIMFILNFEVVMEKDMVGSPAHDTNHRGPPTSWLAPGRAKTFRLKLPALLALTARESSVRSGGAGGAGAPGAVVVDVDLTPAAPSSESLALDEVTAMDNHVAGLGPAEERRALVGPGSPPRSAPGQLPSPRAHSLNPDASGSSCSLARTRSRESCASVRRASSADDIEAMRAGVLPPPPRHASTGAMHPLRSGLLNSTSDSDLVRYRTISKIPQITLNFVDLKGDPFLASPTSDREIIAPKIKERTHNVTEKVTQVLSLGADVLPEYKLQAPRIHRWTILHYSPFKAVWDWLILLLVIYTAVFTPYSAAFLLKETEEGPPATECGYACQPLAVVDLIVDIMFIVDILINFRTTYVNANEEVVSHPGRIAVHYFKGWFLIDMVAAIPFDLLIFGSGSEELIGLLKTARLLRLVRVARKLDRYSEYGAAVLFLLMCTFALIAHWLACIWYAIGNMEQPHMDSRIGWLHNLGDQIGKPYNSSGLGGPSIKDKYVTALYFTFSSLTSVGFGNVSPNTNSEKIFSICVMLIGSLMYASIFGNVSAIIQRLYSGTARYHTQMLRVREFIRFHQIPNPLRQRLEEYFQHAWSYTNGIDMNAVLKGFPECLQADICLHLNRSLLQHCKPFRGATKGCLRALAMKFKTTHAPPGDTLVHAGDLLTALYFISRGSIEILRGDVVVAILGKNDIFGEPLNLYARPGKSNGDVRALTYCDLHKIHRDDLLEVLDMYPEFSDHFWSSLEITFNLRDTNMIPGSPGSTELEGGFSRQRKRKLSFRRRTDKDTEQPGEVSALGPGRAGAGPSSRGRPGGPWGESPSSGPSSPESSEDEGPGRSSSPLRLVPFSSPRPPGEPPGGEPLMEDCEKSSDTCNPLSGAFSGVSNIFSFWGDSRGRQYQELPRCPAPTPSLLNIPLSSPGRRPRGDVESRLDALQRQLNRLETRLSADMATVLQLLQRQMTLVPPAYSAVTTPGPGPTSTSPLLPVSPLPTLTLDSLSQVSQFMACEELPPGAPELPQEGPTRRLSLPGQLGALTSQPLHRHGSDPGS
T1 sequence (P10635 whole entry): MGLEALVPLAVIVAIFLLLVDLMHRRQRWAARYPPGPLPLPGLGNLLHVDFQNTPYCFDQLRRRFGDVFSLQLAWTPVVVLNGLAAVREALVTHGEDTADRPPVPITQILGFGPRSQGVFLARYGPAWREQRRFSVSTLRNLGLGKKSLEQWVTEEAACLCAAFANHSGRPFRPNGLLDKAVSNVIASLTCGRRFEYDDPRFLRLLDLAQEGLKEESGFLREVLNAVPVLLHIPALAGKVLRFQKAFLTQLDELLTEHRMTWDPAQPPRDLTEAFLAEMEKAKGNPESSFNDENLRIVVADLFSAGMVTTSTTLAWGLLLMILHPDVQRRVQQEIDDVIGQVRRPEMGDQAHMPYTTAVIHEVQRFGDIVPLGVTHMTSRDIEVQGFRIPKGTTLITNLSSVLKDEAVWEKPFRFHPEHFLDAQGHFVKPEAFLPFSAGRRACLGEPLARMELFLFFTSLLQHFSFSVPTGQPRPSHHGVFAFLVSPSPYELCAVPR

What is called IC50 is the point on the concentration scale where inhibition reaches its midpoint. By fraction unbound is commonly meant the share of the substance not bound to proteins or other matrix. Low readings indicate little free substance, high ones much free substance. The term AC50 denotes the concentration at which the activity in the assay is half-maximal. A high value points to activity only at high concentration. Consider `N=C(N)c1ccc(OCCN(CCOc2ccc(C(=N)N)cc2)c2ccccc2)cc1` [Analog P35], for which, in data set [1], the “FICI KP” value was found to be 0.12. Besides, the “FICI PA” value with P. aeruginosa (PA01) turned out to be 0.3125. In data set [2], the “FICI with novobiocin against K. pneumoniae expressing mcr-1” value is recorded as 0.12. The “LPS Displacement (EC50, μg/mL)” value in the data set with LPS from E. coli EH100 turned out to be 87.21 µg/mL. In addition, in data set [3], the IC50 at 48 h amounted to 235 µg/mL. Moreover, the “HEK293T Cytotoxicity (IC50, μg/mL)” value in data set [4] stood at 235.4 µg/mL. Also, the thermodynamic solubility in “Solubility at pH 7.4” was 182 µM (≈ 76.2 µg/mL). Besides, in data set [5], the half-life turned out to be 110 min. Besides, the IC50 on CYP2D6 is 14.8 µM. The fraction unbound in data set [6] (dog plasma) was 0.126; in data set [6] (human plasma) it was 0.13; in [6] (mouse plasma), 0.169; in data set [6] (rat plasma) it was 0.077. In addition, on hERG channel, the “Effect on beating at 10 μM” value was “loss of all detectable beating”. Also, at hERG channel (human, 1 h), the “Direct hERG channel inhibition 1 h after exposure” value was “Neither pentamidine nor P35 directly inhibited the hERG channel”. Besides, the “Phospholipidosis MR, percentage in brackets” value in the data set with HepG2 cells is 104%. In addition, the half-maximal activity concentration (AC50) at 72 h in “in vitro” (HepG2 viability / cell cycle arrest AC50) was 14.5 µM; in the data set “in vitro” (Nuclear Size AC50 (μM)) it was 94.5 µM; in “in vitro” (Phospholipidosis AC50 (μM)), 43.1 µM.

The record behind these values is patent US20250382261A1 (The Broad Institute, Inc., priority 2021, published 2025).
